Measurements from patent US10760110B2, “Antibiotic testing and screening system” (priority 2017, dated 2020).
Converted amounts (≈) assume the structure as drawn. Like-named read-outs stand apart in the source and are kept apart here.

Assays:
Conditions in all cases: Klebsiella pneumoniae
[1] = system: K. pneumoniae NVT1001 ΔramRΔompK35/36 mutant and its revertants; assay: Etest MIC, ΔramRΔompK35/36 mutant and its revertants (Table 7); assay type: cell-based
[2] = system: K. pneumoniae NVT1001 and its ΔompK35/36 and/or ΔramR mutants; assay: Etest MIC, OmpK35/36 loss and AcrAB-TolC overexpression (ΔramR) strains (Table 6); assay type: cell-based, Klebsiella pneumoniae
In short: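 Ceftazidime and cefotaxime were tested by CLSI broth microdilution on the blaOXA-48 pACYC177 transformant of NVT1001, using CLSI 2017 breakpoints. Parent, porin-deleted (ΔompK35/36) and ΔramR strains were tested by Etest, with values between two-fold dilutions rounded up.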

[3] = system: K. pneumoniae NVT1001 strains with carbapenemase plasmids; assay: Etest MIC of β-lactams, OmpK35/36 loss, ΔramR and/or carbapenemase (Table 9); assay type: cell-based, Klebsiella pneumoniae
In short: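 Cloned resistance genes in pACYC177 or pACYC184 were electroporated into K. pneumoniae NVT1001. MICs were determined by Etest and rounded up to the next two-fold value. Ceftazidime and cefotaxime against the blaOXA-48 construct were also tested by CLSI broth microdilution, with breakpoints from CLSI 2017 (cephalothin CLSI 2015, moxifloxacin EUCAST 2017).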

CCO/N=C(\C(=O)N[C@@H]1C(=O)N2C(C(=O)[O-])=C(Sc3nc(-c4cc[n+](C)cc4)cs3)CS[C@H]12)c1nsc(N)n1 [Ceftaroline] gave an MIC ([1]; ΔramRΔompK35/36::ompK35/36 revertant) of 1 µg/mL, an MIC ([1]; ΔramRΔompK35/36::ompK35 revertant) of 4 µg/mL and an MIC ([1]; ΔramRΔompK35/36::ompK36 revertant) of 1 µg/mL. For the same compound, the MIC ([1]; ΔramRΔompK35/36::ramR revertant) was 1 µg/mL, the MIC ([1]; ΔramRΔompK35/36::ramR::ompK35/36 revertant) was 0.25 µg/mL and the MIC ([1]; ΔramRΔompK35/36::ramR::ompK35 revertant) was 0.5 µg/mL. For the same compound, the MIC ([1]; ΔramRΔompK35/36::ramR::ompK36 revertant) was 0.5 µg/mL, the MIC ([1]; ΔramRΔompK35/36 mutant) was 4 µg/mL and the MIC ([2]; WT, NVT1001, read-out: MIC) was 0.25 µg/mL (≈ 0.413 µM). The MIC ([2]; Δ35, ΔompK35 mutant) was 0.25 µg/mL (≈ 0.413 µM), the MIC ([2]; Δ35/36, ΔompK35/36 mutant) was 1 µg/mL (≈ 1.65 µM) and the MIC ([2]; Δ36, ΔompK36 mutant) was 0.5 µg/mL (≈ 0.827 µM). For the same compound, the MIC ([2]; ΔramR mutant) was 1 µg/mL (≈ 1.65 µM), the MIC ([2]; ΔramRΔ35, ΔramRΔompK35 mutant) was 1 µg/mL (≈ 1.65 µM) and the MIC ([2]; ΔramRΔ35/36, ΔramRΔompK35/36 mutant) was 4 µg/mL (≈ 6.61 µM). For the same compound, the MIC ([2]; ΔramRΔ36, ΔramRΔompK36 mutant) was 4 µg/mL (≈ 6.61 µM), the MIC ([3]; IMP-8 on pACYC177, WT (NVT1001), read-out: MIC) was 64 µg/mL and the MIC ([3]; IMP-8 on pACYC177, Δ35 (ΔompK35 mutant)) was 64 µg/mL. For the same compound, the MIC ([3]; IMP-8 on pACYC177, Δ35/36 (ΔompK35/36 mutant)) was > 256 µg/mL, the MIC ([3]; IMP-8 on pACYC177, Δ36 (ΔompK36 mutant)) was 64 µg/mL and the MIC ([3]; IMP-8 on pACYC177, ΔramR mutant) was 32 µg/mL. The MIC ([3]; IMP-8 on pACYC177, ΔramRΔ35 (ΔramRΔompK35 mutant)) was 64 µg/mL, the MIC ([3]; IMP-8 on pACYC177, ΔramRΔ35/36 (ΔramRΔompK35/36 mutant)) was 128 µg/mL and the MIC ([3]; IMP-8 on pACYC177, ΔramRΔ36 (ΔramRΔompK36 mutant)) was 64 µg/mL. The MIC ([3]; KPC-2 on pACYC177, WT (NVT1001), read-out: MIC) was 256 µg/mL, the MIC ([3]; KPC-2 on pACYC177, Δ35 (ΔompK35 mutant)) was > 256 µg/mL and the MIC ([3]; KPC-2 on pACYC177, Δ35/36 (ΔompK35/36 mutant)) was > 256 µg/mL. The MIC ([3]; KPC-2 on pACYC177, Δ36 (ΔompK36 mutant)) was > 256 µg/mL, the MIC ([3]; KPC-2 on pACYC177, ΔramR mutant) was > 256 µg/mL and the MIC ([3]; KPC-2 on pACYC177, ΔramRΔ35 (ΔramRΔompK35 mutant)) was > 256 µg/mL. For the same compound, the MIC ([3]; KPC-2 on pACYC177, ΔramRΔ35/36 (ΔramRΔompK35/36 mutant)) was > 256 µg/mL, the MIC ([3]; KPC-2 on pACYC177, ΔramRΔ36 (ΔramRΔompK36 mutant)) was > 256 µg/mL and the MIC ([3]; KPC-3 on pACYC177, WT (NVT1001), read-out: MIC) was 256 µg/mL. For the same compound, the MIC ([3]; KPC-3 on pACYC177, Δ35 (ΔompK35 mutant)) was 256 µg/mL, the MIC ([3]; KPC-3 on pACYC177, Δ35/36 (ΔompK35/36 mutant)) was > 256 µg/mL and the MIC ([3]; KPC-3 on pACYC177, Δ36 (ΔompK36 mutant)) was > 256 µg/mL. For the same compound, the MIC ([3]; KPC-3 on pACYC177, ΔramR mutant) was 256 µg/mL, the MIC ([3]; KPC-3 on pACYC177, ΔramRΔ35 (ΔramRΔompK35 mutant)) was 256 µg/mL and the MIC ([3]; KPC-3 on pACYC177, ΔramRΔ35/36 (ΔramRΔompK35/36 mutant)) was > 256 µg/mL. For the same compound, the MIC ([3]; KPC-3 on pACYC177, ΔramRΔ36 (ΔramRΔompK36 mutant)) was > 256 µg/mL, the MIC ([3]; NDM-1 on pACYC177, WT (NVT1001), read-out: MIC) was > 256 µg/mL and the MIC ([3]; NDM-1 on pACYC177, Δ35 (ΔompK35 mutant)) was > 256 µg/mL. For the same compound, the MIC ([3]; NDM-1 on pACYC177, Δ35/36 (ΔompK35/36 mutant)) was > 256 µg/mL, the MIC ([3]; NDM-1 on pACYC177, Δ36 (ΔompK36 mutant)) was > 256 µg/mL and the MIC ([3]; NDM-1 on pACYC177, ΔramR mutant) was > 256 µg/mL. The MIC ([3]; NDM-1 on pACYC177, ΔramRΔ35 (ΔramRΔompK35 mutant)) was > 256 µg/mL, the MIC ([3]; NDM-1 on pACYC177, ΔramRΔ35/36 (ΔramRΔompK35/36 mutant)) was > 256 µg/mL and the MIC ([3]; NDM-1 on pACYC177, ΔramRΔ36 (ΔramRΔompK36 mutant)) was > 256 µg/mL. For the same compound, the MIC ([3]; OXA-48 on pACYC177, WT (NVT1001), read-out: MIC) was 8 µg/mL, the MIC ([3]; OXA-48 on pACYC177, Δ35 (ΔompK35 mutant)) was 8 µg/mL and the MIC ([3]; OXA-48 on pACYC177, Δ35/36 (ΔompK35/36 mutant)) was 32 µg/mL. For the same compound, the MIC ([3]; OXA-48 on pACYC177, Δ36 (ΔompK36 mutant)) was 8 µg/mL, the MIC ([3]; OXA-48 on pACYC177, ΔramR mutant) was 8 µg/mL and the MIC ([3]; OXA-48 on pACYC177, ΔramRΔ35 (ΔramRΔompK35 mutant)) was 8 µg/mL. It also gave an MIC ([3]; OXA-48 on pACYC177, ΔramRΔ35/36 (ΔramRΔompK35/36 mutant)) of 16 µg/mL, an MIC ([3]; OXA-48 on pACYC177, ΔramRΔ36 (ΔramRΔompK36 mutant)) of 8 µg/mL and an MIC ([3]; VIM-1 on pACYC177, WT (NVT1001), read-out: MIC) of 256 µg/mL. For the same compound, the MIC ([3]; VIM-1 on pACYC177, Δ35 (ΔompK35 mutant)) was > 256 µg/mL, the MIC ([3]; VIM-1 on pACYC177, Δ35/36 (ΔompK35/36 mutant)) was > 256 µg/mL and the MIC ([3]; VIM-1 on pACYC177, Δ36 (ΔompK36 mutant)) was > 256 µg/mL. The MIC ([3]; VIM-1 on pACYC177, ΔramR mutant) was > 256 µg/mL, the MIC ([3]; VIM-1 on pACYC177, ΔramRΔ35 (ΔramRΔompK35 mutant)) was > 256 µg/mL and the MIC ([3]; VIM-1 on pACYC177, ΔramRΔ35/36 (ΔramRΔompK35/36 mutant)) was > 256 µg/mL. The MIC ([3]; VIM-1 on pACYC177, ΔramRΔ36 (ΔramRΔompK36 mutant)) was > 256 µg/mL, the MIC ([3]; no supplemental plasmid, WT (NVT1001), read-out: MIC) was 0.25 µg/mL and the MIC ([3]; no supplemental plasmid, Δ35 (ΔompK35 mutant)) was 0.25 µg/mL. The MIC ([3]; no supplemental plasmid, Δ35/36 (ΔompK35/36 mutant)) was 1 µg/mL, the MIC ([3]; no supplemental plasmid, Δ36 (ΔompK36 mutant)) was 0.5 µg/mL and the MIC ([3]; no supplemental plasmid, ΔramR mutant) was 1 µg/mL. The MIC ([3]; no supplemental plasmid, ΔramRΔ35 (ΔramRΔompK35 mutant)) was 1 µg/mL, the MIC ([3]; no supplemental plasmid, ΔramRΔ35/36 (ΔramRΔompK35/36 mutant)) was 4 µg/mL and the MIC ([3]; no supplemental plasmid, ΔramRΔ36 (ΔramRΔompK36 mutant)) was 4 µg/mL.
